Reference: ChEMBL document CHEMBL5500341, “Discovery of pyrido[3,2-d]pyrimidin-6(5H)-one derivatives as checkpoint kinase 1 (CHK1) inhibitors with potent antitumor efficacy” (Eur J Med Chem, 2024)
Calls of active or inactive are those of the source. No cut-off for these calls is given here.

Columns and labels:
MV4-11 = assay: Antiproliferative activity against human MV4-11 cells assessed as inhibition of cell proliferation incubated for 72 hrs by CCK-8 assay; type: functional, cell-based; details: MV4-11, 72 h
[1] = Metabolic stability in human liver microsome assessed as half life preincubated with compound for 10 mins followed by NADPH addition and measured up to 60 min by LC-MS/MS analysis; type: ADME; details: liver microsomes, time < 70 min
[2] = Metabolic stability in human microsome assessed as intrinsic clearance preincubated with compound for 10 mins followed by NADPH addition and measured up to 60 min by LC-MS/MS analysis; type: ADME; details: microsomes, time < 70 min, read-out: CLH
[3] = Metabolic stability in human liver microsome assessed as intrinsic clearance preincubated with compound for 10 mins followed by NADPH addition and measured up to 60 min by LC-MS/MS analysis; type: ADME; details: liver microsomes, time < 70 min, read-out: CLH
HT-29 [4] = assay: cells; details: Homo sapiens, HT-29, 72 h
Description: Antiproliferative activity against human HT-29 cells assessed as inhibition of cell proliferation incubated for 72 hrs by CCK-8 assay

[5] = target: T1, Serine/threonine-protein kinase Chk1 (Homo sapiens) (UniProt O14757); assay: Inhibition of CHK1 in human MV4-11 cells assessed as decrease in S296 phosphorylation at 11.11 nM measured for 24 hrs by Western blot analysis; type: cell-based
T1 sequence (whole entry): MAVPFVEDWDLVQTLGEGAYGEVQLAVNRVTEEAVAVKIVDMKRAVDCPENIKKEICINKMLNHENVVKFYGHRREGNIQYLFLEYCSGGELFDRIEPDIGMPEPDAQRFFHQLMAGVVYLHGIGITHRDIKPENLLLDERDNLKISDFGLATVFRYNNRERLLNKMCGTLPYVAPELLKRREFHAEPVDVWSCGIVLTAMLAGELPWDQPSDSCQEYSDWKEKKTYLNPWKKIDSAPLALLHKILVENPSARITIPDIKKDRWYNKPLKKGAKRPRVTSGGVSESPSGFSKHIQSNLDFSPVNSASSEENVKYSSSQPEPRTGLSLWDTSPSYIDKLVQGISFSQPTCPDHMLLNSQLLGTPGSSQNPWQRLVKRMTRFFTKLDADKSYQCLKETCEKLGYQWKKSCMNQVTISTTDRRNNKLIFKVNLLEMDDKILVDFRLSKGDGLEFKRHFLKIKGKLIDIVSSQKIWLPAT

HT-29 [6] = assay: Synergistic antiproliferative activity against human HT-29 cells assessed as inhibition of cell proliferation incubated for 72 hrs in presence of 50 nM 5-((4-((morpholin-2-ylmethyl)amino)-5-(trifluoromethyl)pyridin-2-yl)amino)pyrazine-2-carbonitrile by CCK-8 assay; type: functional, cell-based; details: HT-29, 72 h
HT-29 [7] = assay: Antitumor activity against human HT-29 cells xenografted in female BALB/c mouse assessed as tumor growth inhibition at 30 mg/kg, iv administered once daily for 21 days and measured after 3 days by vernier calipers analysis; details: HT-29, 576 h, read-out: TGI
HT-29 [8] = assay: Synergistic antiproliferative activity against human HT-29 cells assessed as inhibition of cell proliferation incubated for 72 hrs in presence of 50 nM gemcitabine by CCK-8 assay; type: functional, cell-based; details: HT-29, 72 h
A549 = assay: cells; details: Homo sapiens, A549, 72 h
Description: Antiproliferative activity against human A549 cells assessed as inhibition of cell proliferation incubated for 72 hrs by CCK-8 assay

OVCAR-3 = assay: cells; details: Homo sapiens, OVCAR-3, 72 h
Description: Antiproliferative activity against human OVCAR-3 cells assessed as inhibition of cell proliferation incubated for 72 hrs by CCK-8 assay

HL-60 = assay: cells; details: Homo sapiens, HL-60, 72 h
Description: Antiproliferative activity against human HL-60 cells assessed as inhibition of cell proliferation incubated for 72 hrs by CCK-8 assay

HCT-116 = assay: cells; details: Homo sapiens, HCT-116, 72 h
Description: Antiproliferative activity against human HCT-116 cells assessed as inhibition of cell proliferation incubated for 72 hrs by CCK-8 assay

A2780 = assay: cells; details: Homo sapiens, A2780, 72 h
Description: Antiproliferative activity against human A2780 cells assessed as inhibition of cell proliferation incubated for 72 hrs by CCK-8 assay

MDA-MB-468 = assay: cells; details: Homo sapiens, MDA-MB-468, 72 h
Description: Antiproliferative activity against human MDA-MB-468 cells assessed as inhibition of cell proliferation incubated for 72 hrs by CCK-8 assay

Compound | IC50 (MV4-11) [µM] | other results
N#Cc1ncc(Nc2ncc3c(ccc(=O)n3CC(=O)O)n2)cc1N[C@H]1CC[C@@H](N)CC1 | > 10 | –
N#Cc1ncc(Nc2ncc3c(ccc(=O)n3CC(F)(F)F)n2)cc1N[C@H]1CCNC1 | > 10 | –
O=C(O)Cc1ccccc1Nc1c(Cl)cccc1Cl [DICLOFENAC] | – | half-life [1]: 5.14 min; microsomal CLint [2]: 269 µL/min/mg; CLint scaled [3]: 242 mL/min/kg
Cn1c(=O)ccc2nc(Nc3cnc(C#N)c(N[C@H]4CC[C@@H](N)CC4)c3)ncc21 | 0.883 | –
N#Cc1ncc(Nc2ncc3[nH]c(=O)ccc3n2)cc1N[C@H]1CC[C@@H](N)CC1 | 0.0565 | IC50 (HT-29 [4]): > 10 µM
N#Cc1ncc(Nc2ncc3c(ccc(=O)n3CC(F)F)n2)cc1NC[C@H]1CCNC1 | > 10 | –
CN1CCC(Oc2cc(Nc3ncc4c(ccc(=O)n4CC(F)F)n3)cnc2C#N)CC1 | > 10 | –
CC(C)n1c(=O)ccc2nc(Nc3cnc(C#N)c(N[C@H]4CC[C@@H](N)CC4)c3)ncc21 | 2.19 | –
N#Cc1ncc(Nc2ncc3c(n2)CCC(=O)N3)cc1NC1CCNC1 (single isomer, unassigned) | > 10 | IC50 (HT-29 [4]): > 10 µM
N#Cc1ncc(Nc2ncc3c(ccc(=O)n3CC(F)F)n2)cc1N[C@@H]1CCCNC1 | 3.63 | –
N#Cc1ncc(Nc2ncc3[nH]c(=O)ccc3n2)cc1N[C@H]1CCCNC1 | 0.0195 | IC50 (HT-29 [4]): > 10 µM
Nc1ccn([C@@H]2O[C@H](CO)[C@@H](O)C2(F)F)c(=O)n1 [GEMCITABINE] | – | inhibition [5]: Active; IC50 (HT-29 [6]): 0.177 µM; inhibition in vivo at 30 mg/kg (HT-29 [7]): 33.5%
N#Cc1ncc(Nc2ncc3[nH]c(=O)ccc3n2)cc1NCCN | – | IC50 (HT-29 [4]): > 10 µM
N#Cc1ncc(Nc2ncc3c(ccc(=O)n3CC(F)F)n2)cc1O[C@@H]1CCCNC1 | 4.88 | –
N#Cc1ncc(Nc2ncc3c(ccc(=O)n3CC(F)F)n2)cc1N[C@H]1CC[C@H](N)CC1 | 2.67 | –
N#Cc1ncc(Nc2ncc3c(ccc(=O)n3CC(F)F)n2)cc1OCCCN | > 10 | –
N#Cc1ncc(Nc2ncc3c(ccc(=O)n3CC(N)=O)n2)cc1N[C@H]1CC[C@@H](N)CC1 | 8.64 | –
N#Cc1ncc(Nc2ncc3c(ccc(=O)n3CC(F)F)n2)cc1NC1CCNCC1 | > 10 | –

Compound | IC50 (MV4-11) [µM] | other results
N#Cc1ncc(Nc2ncc3c(ccc(=O)n3CC(F)F)n2)cc1NCC1CCCCN1 (configuration not stated) | 3.8 | –
CCn1c(=O)ccc2nc(Nc3cnc(C#N)c(N[C@H]4CC[C@@H](N)CC4)c3)ncc21 | 2.23 | –
CN(C)CCNc1cc(Nc2ncc3c(ccc(=O)n3CC(F)F)n2)cnc1C#N | 3.81 | –
N#Cc1ncc(Nc2ncc3c(ccc(=O)n3CC(F)F)n2)cc1OCC1CCNCC1 | > 10 | –
CC(C)(C)OC(=O)N1CCC(Nc2cc(Nc3ncc4c(n3)CCC(=O)N4)cnc2C#N)C1 (single isomer, unassigned) | > 10 | IC50 (HT-29 [4]): > 10 µM
N#Cc1ncc(Nc2ncc3[nH]c(=O)ccc3n2)cc1NC[C@@H]1CCCNC1 | – | IC50 (HT-29 [4]): > 10 µM
N#Cc1ncc(Nc2ncc3[nH]c(=O)ccc3n2)cc1N[C@H]1CC[C@H](N)CC1 | 0.0394 | IC50 (HT-29 [4]): > 10 µM
N#Cc1ncc(Nc2ncc3[nH]c(=O)ccc3n2)cc1N1CCOCC1 | – | IC50 (HT-29 [4]): > 10 µM
N#Cc1cnc(Nc2cc(NC[C@H]3CNCCO3)c(C(F)(F)F)cn2)cn1 [SRA-737] | – | IC50 (HT-29 [8]): 0.177 µM; IC50 (HT-29 [4]): > 10 µM; IC50 (A549): > 10 µM; IC50 (OVCAR-3): > 10 µM; IC50 (HL-60): > 10 µM; IC50 (HCT-116): > 10 µM; IC50 (A2780): > 10 µM; IC50 (MDA-MB-468): > 10 µM
N#Cc1ncc(Nc2ncc3c(ccc(=O)n3CC(F)F)n2)cc1N[C@H]1CC[C@@H](N)CC1 | 2.47 | –
N#Cc1ncc(Nc2ncc3c(ccc(=O)n3CC(F)F)n2)cc1OC1CCNCC1 | > 10 | –
N#Cc1ncc(Nc2ncc3c(ccc(=O)n3CC(F)F)n2)cc1O[C@H]1CCCNC1 | > 10 | –
N#Cc1ncc(Nc2ncc3[nH]c(=O)ccc3n2)cc1NC1CCNC1 (single isomer, unassigned) | > 10 | IC50 (HT-29 [4]): > 10 µM
N#Cc1ncc(Nc2ncc3c(ccc(=O)n3CC(F)F)n2)cc1OC[C@H]1CCCNC1 | > 10 | –
N#Cc1ncc(Nc2ncc3c(ccc(=O)n3CC(F)F)n2)cc1NCCN | > 10 | –
N#Cc1ncc(Nc2ncc3c(ccc(=O)n3CC(F)(F)F)n2)cc1N[C@H]1CC[C@@H](N)CC1 | 2.11 | –
N#Cc1ncc(Nc2ncc3c(ccc(=O)n3CC(F)F)n2)cc1O[C@@H]1CCNC1 | > 10 | –
